# Measurements reported in patent US20240199693A1, “HE[…] FOR USE IN THE TREATMENT OF HMGB1-DEPENDENT DISEASES” (priority 2021, published 2024).
# Square brackets hold non-standard residues; d marks the D form. Ends that are not written are not given here.
# How the values were obtained:
# Assay type in all cases: in vivo
# HMGB1 [1] = experiment: Mouse model of acute lung injury induced by intratracheal LPS; HMGB1 in bronchoalveolar fluid by ELISA; conditions: C57Bl/6 male mice, BALF after 48 hours, mean±SEM (n=6)
# Procedure: This example illustrates efficacy of compounds of the invention in the inhibition of HMGB1 secretion.
# Compounds of the invention were tested in a mouse model of acute lung injury induced by intratracheal administration of lipopolysaccharide (LPS) as described, for instance, in D'Alessio F R. Mouse Models of Acute Lung Injury and ARDS. Methods Mol Biol. 2018, 1809:341-350. C57BI/6 male mice were randomized into eight groups of 6 animals each. Mice were treated intratracheally with 1 μg/mouse of α-Galactosyl Ceramide (α-GalCer, KRN7000, Sigma-Aldrich) and after 24 hours with LPS (E. coli; 1 mg/mouse) and 10 μL/mouse Freund's complete adjuvant. Then, mice received by inhalation 50 μL saline (control); 10, 100, or 250 μg/kg of H-Tyr-D-Ala-Gly-Phe-Leu-Arg-Arg-NH2; 100 μg/kg of H-Tyr-D-Ala-Gly-Phe-Leu-Arg-Arg-NHC2H5; 100 μg/kg of H-Tyr-D-Ala-Gly-Phe-Leu-Arg-Arg-NHC4H9; 100 μg/kg of H-Tyr-D-Ala-Gly-Phe-Leu-Arg-Arg-N(CH3)2; 10 μg/kg H-Tyr-D-Ala-Gly-Phe-Leu-Arg-Arg-OH (Chavkin C et al. 1981); or 250 μg/kg of [D-Ala^2, D-Leu^5]-enkephalin as solutions in 50 μL. saline. After 48 hours, HMGB1 concentrations were measured in bronchoalveolar fluid (BALF) with commercially available ELISA kit for HMGB1 (SEA3999Mu, Cloud-Clone corp.). Results are presented in Tables 1 as mean±SEM (n=6) of HMGB1 levels in BALF, in % of control.
# HMGB1 [2] = experiment: Mouse model of rheumatoid arthritis (type II collagen-induced); serum HMGB1 by ELISA and arthritis incidence; conditions: BALB/c male mice
# Procedure: (§1) This example illustrates that compound (I) is useful for treating arthritis, the HMGB1-dependent disease.
# An efficacy of the compound of the invention was tested in a mouse model of rheumatoid arthritis, as described in Brand et al., Nat Protoc. 2007, 2(5):1269-75. Male BALB/c mice were randomized into two groups of 5 animals each. Arthritis was induced in using an intradermal injection of cold emulsion (0.05 ml) prepared by emulsifying chicken type II collagen (CII) solution in acetic acid with complete Freund's adjuvant (CFA) into the base of the tail. Three weeks later, the mice were administered by a second injection in the same manner. Following the booster immunization, mice received 50 μL saline i.p. (control) or 100 μg/kg H-Tyr-D-Ala-Gly-Phe-Leu-Arg-Arg-NH2 in 50 μL saline i.p., once-a-day, for two weeks. The serum level of HMGB1 was determined on day 35 with commercially available ELISA kit for HMGB1 (SEA3999Mu, Cloud-Clone corp.). The clinical severity of arthritis in each paw was quantified according to a graded scale from 0 to 4, as described in Brand et al., Nat Protoc. 2007, 2(5):1269-75. Results are presented in Table 2 as and mean±SEM (n=5) of HMGB1 levels in serum in % of control and arthritis incidence.
# HMGB1 [3] = experiment: Mouse model of antigen-induced arthritis (mBSA); knee swelling and HMGB1 in synovial lavage fluid by ELISA; conditions: C3H/He male mice, 0.14 mg/kg s.c. once-a-day for 5 days, 25th day, mean±SEM (n=6)
# Procedure: as §1
# An efficacy of H-Tyr-D-Ala-Gly-Phe-Leu-Arg-Arg-NH2 acetate was tested in a mouse model of antigen-induced arthritis induced by methylated bovine serum albumin (mBSA), as described in Brackertz et al., Arthritis Rheum. 1977, 20(3):841-50; Staite et al., Agents and Actions 1989, 27(3/4):338-40. Briefly, male C3H/He mice 8-10 weeks of age were randomized into two groups of 6 animals each. Immunization: the mice were immunized 2 times (on the 0th and 7th days) with s.c. injections of mBSA (50 mg/kg, Sigma-Aldrich) emulsified in 20 μL Freund's complete adjuvant and on the 21st day received intra-articular injection of mBSA (50 mg/kg) in 20 μL saline in the right hind knee as a booster immunization. […] Treatment: the mice received s.c. injections either 0.1 ml saline (control, n=6) or 0.14 mg/kg H-Tyr-D-Ala-Gly-Phe-Leu-Arg-Arg-NH2 acetate in 0.1 ml saline (n=6), once-a-day for 5 consecutive days, beginning 30 min after the booster immunization. The disease course was quantified by assessment of the swelling of the arthritic knee joint on 25th day. HMGB1 levels (pg/ml) in the synovial lavage fluids of the arthritic joint on 25th day was measured using ELISA (SEA3999Mu, Cloud-Clone corp.). […]
substance,measurement,setting,value
H-Tyr-D-Ala-Gly-Phe-Leu-Arg-Arg-N(CH3)2 acetate (H-Y[dA]GFLRR-NMe2; also: acetate salt) [heptapeptide dimethylamide of formula (I)],"HMGB1 in BALF, % of control",HMGB1 [1]; 100 μg/kg by inhalation,42.3 ± 5.9 %
H-Tyr-D-Ala-Gly-Phe-Leu-Arg-Arg-NHC2H5 acetate (H-Y[dA]GFLRR-NHEt; also: acetate salt) [heptapeptide ethylamide of formula (I)],"HMGB1 in BALF, % of control",HMGB1 [1]; 100 μg/kg by inhalation,35.2 ± 7.2 %
H-Tyr-D-Ala-Gly-Phe-Leu-Arg-Arg-NHC4H9 acetate (H-Y[dA]GFLRR-NHC4H9; also: acetate salt) [heptapeptide butylamide of formula (I)],"HMGB1 in BALF, % of control",HMGB1 [1]; 100 μg/kg by inhalation,40.1 ± 5.0 %
"H-Tyr-D-Ala-Gly-Phe-Leu-Arg-Arg-OH (H-Y[dA]GFLRR-OH; also: acetate salt) [modified [D-Ala^2]-dynorphin (1-7) described by Chavkin C et al. 1981; structurally similar comparison peptide, reference compound]","HMGB1 in BALF, % of control",HMGB1 [1]; 10 μg/kg by inhalation,88.67 ± 10.5%
"L-tyrosyl-D-alanyl-L-glycyl-L-phenylala nyl-L-leucyl-L-arginyl-L-arginine amide acetate (Y[dA]GFLRR-NH2; also: acetate salt) [heptapeptide amide of formula (I), Z = NH2]","HMGB1 in BALF, % of control",HMGB1 [1]; 100 μg/kg by inhalation,31.8 ± 12.4 %
same,"HMGB1 in BALF, % of control",HMGB1 [1]; 250 μg/kg by inhalation,34.2 ± 8.0 %
same,Arthritis incidence,HMGB1 [2]; 100 μg/kg i.p. once-a-day for two weeks (n=5),20%
same,"HMGB1 in serum, % of control","HMGB1 [2]; 100 μg/kg i.p. once-a-day for two weeks, day 35, mean±SEM (n=5)",21.5 ± 5.9 %
same,HMGB1 in synovial lavage fluid of the arthritic joint,HMGB1 [3],119 ± 38 pg/mL
same,Knee joint circumference,HMGB1 [3],1.32 ± 0.04 cm
